According to the supplement of paper PMC10307832:

Compound: Cn1nnc2c(C(N)=O)ncn2c1=O [Temozolomide] + Nc1ncn([C@H]2C[C@H](O)[C@@H](CO)O2)c(=O)n1 [Decitabine] (partner 2 µM)
Test: relative viability (nuclei count vs DMSO), 5 days (fraction); higher = more cells survive
Conditions: first compound 0.2 µM
How it was run: (§1)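 Values are medians from duplicate plates. Each reflects relative viability, defined as the nuclei count of treated wells over that of vehicle wells. Lung cancer cell lines in 1536-well plates were pin-tool dosed one day after seeding with one drug alone or with a fixed anchor-drug dose plus five library-drug doses (not always all listed) in √10 steps, then fixed, stained and imaged at 4× after 5 days.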

Cell Line | relative viability
NCI-H2087 | 0.306
NCI-H2126 | 0.554
NCI-H2347 | 0.613
NCI-H2405 | 0.773
NCI-H3122 | 0.438
PC-3 [JPC-3] | 0.787
PC-14 | 0.27
RERF-LC-KJ | 0.738

Same assay, conditions: first compound 0.6325 µM

Cell Line | relative viability
NCI-H2087 | 0.314
NCI-H2126 | 0.611
NCI-H2170 | 0.511
NCI-H2347 | 0.645
NCI-H2405 | 0.779
NCI-H3122 | 0.484
PC-3 [JPC-3] | 0.854
PC-14 | 0.241
RERF-LC-KJ | 0.78

Same assay, conditions: first compound 2 µM

Cell Line | relative viability
NCI-H2087 | 0.322
NCI-H2126 | 0.596
NCI-H2170 | 0.45
NCI-H2347 | 0.669
NCI-H2405 | 0.863
NCI-H3122 | 0.611
PC-3 [JPC-3] | 0.886
PC-14 | 0.245
RERF-LC-KJ | 0.733

Same assay, conditions: first compound 6.325 µM

Cell Line | relative viability
NCI-H2087 | 0.281
NCI-H2126 | 0.639
NCI-H2170 | 0.383
NCI-H2347 | 0.595
NCI-H2405 | 0.699
NCI-H3122 | 0.478
PC-3 [JPC-3] | 0.762
PC-14 | 0.21
RERF-LC-KJ | 0.617

Same assay, conditions: first compound 20 µM

Cell Line | relative viability
NCI-H2087 | 0.299
NCI-H2126 | 0.589
NCI-H2170 | 0.268
NCI-H2347 | 0.604
NCI-H2405 | 0.673
NCI-H3122 | 0.378
PC-3 [JPC-3] | 0.498
PC-14 | 0.182
RERF-LC-KJ | 0.712

Compound: C[C@@H](C(=O)N[C@@H](C1CCCCC1)C(=O)N2CCC[C@H]2C(=O)N[C@@H]3[C@@H](CC4=CC=CC=C34)OCC#CC#CCO[C@@H]5CC6=CC=CC=C6[C@@H]5NC(=O)[C@@H]7CCCN7C(=O)[C@H](C8CCCCC8)NC(=O)[C@H](C)NC)NC [AZD5582] + O=C(c1cc(Cc2n[nH]c(=O)c3ccccc23)ccc1F)N1CCN(C(=O)C2CC2)CC1 [Olaparib] (partner 8 µM)
Test: as above
Conditions: first compound 0.001581 µM
How it was run: as §1

Cell Line | relative viability
NCI-H2087 | 0.442
NCI-H2126 | 0.897
NCI-H2170 | 0.561
NCI-H2347 | 0.496
NCI-H2405 | 0.83
NCI-H3122 | 0.634
PC-3 [JPC-3] | 0.914
PC-14 | 0.183

Same assay, conditions: first compound 0.005 µM

Cell Line | relative viability
NCI-H2087 | 0.604
NCI-H2126 | 0.868
NCI-H2170 | 0.543
NCI-H2347 | 0.624
NCI-H2405 | 0.875
NCI-H3122 | 0.557
PC-3 [JPC-3] | 0.855
PC-14 | 0.148

Same assay, conditions: first compound 0.01581 µM

Cell Line | relative viability
NCI-H2087 | 0.607
NCI-H2126 | 0.861
NCI-H2170 | 0.628
NCI-H2347 | 0.581
NCI-H2405 | 0.833
NCI-H3122 | 0.641
PC-3 [JPC-3] | 1.09
PC-14 | 0.306
RERF-LC-KJ | 0.852

Same assay, conditions: first compound 0.05 µM

Cell Line | relative viability
NCI-H2087 | 0.719
NCI-H2126 | 0.745
NCI-H2170 | 0.688
NCI-H2347 | 0.525
NCI-H2405 | 0.842
NCI-H3122 | 0.537
PC-3 [JPC-3] | 0.536
PC-14 | 0.136
RERF-LC-KJ | 0.691

Compound: Cn1nnc2c(C(N)=O)ncn2c1=O [Temozolomide] + NC(=O)Nc1cc(-c2cccc(F)c2)sc1C(=O)N[C@H]1CCCNC1 [AZD7762] (partner 0.2 µM)
Test: as above
Conditions: first compound 0.2 µM
How it was run: as §1

Cell Line | relative viability
NCI-H2087 | 1.38
NCI-H2126 | 1.05
NCI-H2347 | 0.572
NCI-H2405 | 0.821
NCI-H3122 | 1.02
PC-3 [JPC-3] | 0.775
PC-14 | 0.361
RERF-LC-KJ | 0.977

Same assay, conditions: first compound 0.6325 µM

Cell Line | relative viability
NCI-H2087 | 1.31
NCI-H2126 | 1.02
NCI-H2170 | 0.951
NCI-H2347 | 0.743
NCI-H2405 | 0.79
NCI-H3122 | 1.05
PC-3 [JPC-3] | 0.916
PC-14 | 0.402
RERF-LC-KJ | 0.926

Same assay, conditions: first compound 2 µM

Cell Line | relative viability
NCI-H2087 | 1.46
NCI-H2126 | 1.02
NCI-H2170 | 0.733
NCI-H2347 | 0.757
NCI-H2405 | 0.828
NCI-H3122 | 1.01
PC-3 [JPC-3] | 0.825
PC-14 | 0.322
RERF-LC-KJ | 0.989

Same assay, conditions: first compound 6.325 µM

Cell Line | relative viability
NCI-H2087 | 1.35
NCI-H2126 | 0.959
NCI-H2170 | 0.466
NCI-H2347 | 0.792
NCI-H2405 | 0.759
NCI-H3122 | 0.922
PC-3 [JPC-3] | 0.797
PC-14 | 0.275
RERF-LC-KJ | 0.953

Same assay, conditions: first compound 20 µM

Cell Line | relative viability
NCI-H2087 | 1.33
NCI-H2126 | 1.11
NCI-H2170 | 0.295
NCI-H2347 | 0.706
NCI-H2405 | 0.75
NCI-H3122 | 0.934
PC-3 [JPC-3] | 0.529
PC-14 | 0.15
RERF-LC-KJ | 1.01

Compound: Cn1nnc2c(C(N)=O)ncn2c1=O [Temozolomide] + CS(=O)(=O)N1CCN(Cc2cc3nc(-c4cccc5[nH]ncc45)nc(N4CCOCC4)c3s2)CC1 [Pictilisib] (partner 1 µM)
Test: as above
Conditions: first compound 0.2 µM
How it was run: as §1

Cell Line | relative viability
NCI-H2087 | 1.08
NCI-H2126 | 0.475
NCI-H2347 | 0.624
NCI-H2405 | 0.392
NCI-H3122 | 0.521
PC-3 [JPC-3] | 0.71
PC-14 | 0.834
RERF-LC-KJ | 0.625

Same assay, conditions: first compound 0.6325 µM

Cell Line | relative viability
NCI-H2087 | 0.858
NCI-H2126 | 0.554
NCI-H2170 | 0.38
NCI-H2347 | 0.863
NCI-H2405 | 0.434
NCI-H3122 | 0.657
PC-3 [JPC-3] | 0.775
PC-14 | 0.791
RERF-LC-KJ | 0.564

Same assay, conditions: first compound 2 µM

Cell Line | relative viability
NCI-H2087 | 0.927
NCI-H2126 | 0.489
NCI-H2170 | 0.361
NCI-H2347 | 0.861
NCI-H2405 | 0.487
NCI-H3122 | 0.59
PC-3 [JPC-3] | 0.798
PC-14 | 0.737
RERF-LC-KJ | 0.557

Same assay, conditions: first compound 6.325 µM

Cell Line | relative viability
NCI-H2087 | 0.895
NCI-H2126 | 0.511
NCI-H2170 | 0.289
NCI-H2347 | 0.649
NCI-H2405 | 0.338
NCI-H3122 | 0.57
PC-3 [JPC-3] | 0.774
PC-14 | 0.614
RERF-LC-KJ | 0.501

Same assay, conditions: first compound 20 µM

Cell Line | relative viability
NCI-H2087 | 0.851
NCI-H2126 | 0.457
NCI-H2170 | 0.23
NCI-H2347 | 0.502
NCI-H2405 | 0.465
NCI-H3122 | 0.553
PC-3 [JPC-3] | 0.296
PC-14 | 0.0773
RERF-LC-KJ | 0.467
